Test results taken from article PMC11732138, “Gold complex compounds that inhibit drug-resistant Staphylococcus aureus by targeting thioredoxin reductase” (Frontiers in Antibiotics, 2023).
Values after ≈ are worked out from the molar mass of the structure shown. “Also recorded” adds a separate entry of the source. Like-named read-outs stand apart in the source and are kept apart here.

How the values were obtained:
S. aureus MW2 [1] = test: Time to kill assay; assay type: cell-based, Staphylococcus aureus; conditions: 4 × MIC, 4 h; bactericidal = 3-log10-CFU/mL reduction
Method: S. aureus MW2, a methicillin-resistant S. aureus (MRSA) isolate, was used to determine the bacteriostatic/bactericidal properties of test compounds, as previously described ([Rajamuthiah et al., 2015]). Assays were carried out as 2 biological replicates with n=3 for each in 24 well plates (BD Biosciences, Franklin Lakes, NJ, USA). Briefly, S. aureus MW2 cells were streaked on TSB agar from a frozen glycerol stock, and after overnight incubation, a single colony was inoculated on 2 mL of TSB and incubated at 37°C with agitation. The overnight culture of S. aureus MW2 was centrifuged at 4000 g for 5 min and then washed twice with PBS and collected through centrifuged at 4000 g for 5 min. The PBS was discarded and cells were suspended in TSB and aliquoted into a 24-well plate at a density of 10^8 cells/mL as a 1 mL volume. Test compounds were added such that the final concentration was 4 × MIC, and the cultures were incubated at 37°C with agitation. At designated time intervals, 5 μL aliquots from each test condition were serially diluted in TSB and plated onto TSA (BD Biosciences, Franklin Lakes, NJ, USA). CFUs were enumerated after overnight incubation at 35°C, and data were plotted using GraphPad Prism 9.0 (San Diego, CA, USA) to report the means and standard deviation of growth as measured by CFU/mL.

HKC cells = test: Immortalized cell line toxicity (WST-1), HKC; assay type: cell-based, human; conditions: HKC kidney cell line, 24 h
Method: (§1) A hepatic cell line (HepG2), lung carcinoma cell line (A549), and kidney cell line (HKC) were used to test the cytotoxicity of investigational compounds. Cells were grown in DMEM (ThermoFisher Scientific, Waltham, MA, USA) supplemented with 10% fetal bovine serum (FBS) (ThermoFisher Scientific, Waltham, MA, USA) and 1% penicillin/streptomycin (ThermoFisher Scientific, Waltham, MA, USA) and maintained at 37°C in 5% CO2. 2.5x10^4 cells in 100 μL of DMEM with 10% FBS were added to wells of 96-well plates 24 h prior to the experiments. Compounds were serially diluted in […], and 100 μL antibiotic-free DMEM was added to the monolayer and incubated at 37°C in 5% CO2 for 24 h. At 2 h before the end of the incubation period, 10 μL of 2-(4-iodophenyl)-3-(4-nitrophenyl)-5-(2, 4-disulfophenyl)-2H-tetrazolium (WST-1) solution (Roche, Mannheim, Germany) was added to each well. WST-1 reduction was monitored at 450 nm using a Vmax microplate reader. Assays were performed in triplicate, and the percentage survival was calculated by comparing the compound-treated wells to the DMSO vehicle control wells.

HepG2 cells = test: Immortalized cell line toxicity (WST-1), HepG2; assay type: cell-based, human; conditions: HepG2 liver cell line, 24 h
Method: as §1

A549 cells = test: Immortalized cell line toxicity (WST-1), A549; assay type: cell-based, human; conditions: A549 lung carcinoma cell line, 24 h
Method: as §1

[2] = Immortalized cell line toxicity (WST-1), the three cell lines together; assay type: cell-based; conditions: human, hkc, hepg2, a549 cells, HKC, HepG2, A549; read-out: toxicity to cell lines as multiple of the MIC
Method: as §1

[3] = test system: human primary hepatocytes; test: Human primary hepatocytes toxicity; assay type: cell-based; conditions: 24 h, WST1
Method: Human primary hepatocytes toxicity. Cryopreserved human primary hepatocytes were purchased from the Cell Resource Core at Massachusetts General Hospital (Boston, MA, USA). Collagen sandwiched configuration was used to culture the thawed cells in 24-well plates. The 24-well plates were coated with rat tail collagen type I (Cell Recourse Core, MGH) and incubated for an hour before 4 x 10^5 live cells were plated and incubated at 37°C with 5% CO2 for 1 h to allow cells to attach to the collagen gel. After incubation, the medium was removed along with dead cells, and the remaining cells received 0.5 mL of hepatocyte culture medium containing Dulbecco’s modified Eagle’s medium (DMEM) media supplemented with 10% FBS, 0.5 U/mL insulin, 14 ng/mL glucagon, 20 ng/mL EGF, 7.5 µg/mL hydrocortisone and 200 U/mL penicillin-streptomycin. The cell cultures were incubated in a humidified, 5% CO2 incubator at 37°C. After 24 h, a top layer of collagen gel was poured over the hepatocytes attached to collagen on the bottom of the plate, making a sandwich model. After 1 h, investigational compounds at the designated concentrations were added and incubated for 24 h. Post incubation, hepatocyte WST1 (Roche, Basel, Switzerland) was added and incubated for 4 h. Cell staining was measured by recording the absorbance at 420 nm, measured using a Vmax microplate reader (Molecular Devices, San Jose, CA, USA.), and data were plotted using GraphPad Prism. Cells were tested in triplicate.

[4] = test system: renal proximal tubule epithelial cells; test: Renal proximal tubule epithelial cell toxicity; assay type: cell-based, human
[5] = Compound solubility in PBS; assay type: physicochemical; conditions: aqueous buffer
Method: Compound solubility in PBS. Compound solubility was measured in PBS. Briefly, serial dilutions of test compounds were prepared in DMSO at 100x the final concentration. Test compound solutions were diluted 100-fold into PBS in a 96-well plate and mixed. After 2 h, the presence of precipitate was detected by measuring absorbance at 540 nm.

[6] = Compound solubility in DMSO; assay type: physicochemical; conditions: organic solvent or mixture, turbidity at 540 nm, read-out: concentration at which reduced solubility began in DMSO
Method: To test compound solubility, stock solutions were made in triplicate at 50 mg/mL in DMSO. Two-fold serial dilutions of the test compounds were prepared at 50 μL volume in a 96-well assay plate and were kept in the incubator for 1 h. After incubation, the absorbance was measured at 540 nm using a Vmax microplate reader (Molecular Devices, Sunnyvale, CA, USA.) to detect turbidity.

hERG channel = hERG channel (Homo sapiens, UniProt Q12809); test: hERG measurement (QPatch HTX patch clamp)
Sequence of hERG channel (Q12809 whole entry): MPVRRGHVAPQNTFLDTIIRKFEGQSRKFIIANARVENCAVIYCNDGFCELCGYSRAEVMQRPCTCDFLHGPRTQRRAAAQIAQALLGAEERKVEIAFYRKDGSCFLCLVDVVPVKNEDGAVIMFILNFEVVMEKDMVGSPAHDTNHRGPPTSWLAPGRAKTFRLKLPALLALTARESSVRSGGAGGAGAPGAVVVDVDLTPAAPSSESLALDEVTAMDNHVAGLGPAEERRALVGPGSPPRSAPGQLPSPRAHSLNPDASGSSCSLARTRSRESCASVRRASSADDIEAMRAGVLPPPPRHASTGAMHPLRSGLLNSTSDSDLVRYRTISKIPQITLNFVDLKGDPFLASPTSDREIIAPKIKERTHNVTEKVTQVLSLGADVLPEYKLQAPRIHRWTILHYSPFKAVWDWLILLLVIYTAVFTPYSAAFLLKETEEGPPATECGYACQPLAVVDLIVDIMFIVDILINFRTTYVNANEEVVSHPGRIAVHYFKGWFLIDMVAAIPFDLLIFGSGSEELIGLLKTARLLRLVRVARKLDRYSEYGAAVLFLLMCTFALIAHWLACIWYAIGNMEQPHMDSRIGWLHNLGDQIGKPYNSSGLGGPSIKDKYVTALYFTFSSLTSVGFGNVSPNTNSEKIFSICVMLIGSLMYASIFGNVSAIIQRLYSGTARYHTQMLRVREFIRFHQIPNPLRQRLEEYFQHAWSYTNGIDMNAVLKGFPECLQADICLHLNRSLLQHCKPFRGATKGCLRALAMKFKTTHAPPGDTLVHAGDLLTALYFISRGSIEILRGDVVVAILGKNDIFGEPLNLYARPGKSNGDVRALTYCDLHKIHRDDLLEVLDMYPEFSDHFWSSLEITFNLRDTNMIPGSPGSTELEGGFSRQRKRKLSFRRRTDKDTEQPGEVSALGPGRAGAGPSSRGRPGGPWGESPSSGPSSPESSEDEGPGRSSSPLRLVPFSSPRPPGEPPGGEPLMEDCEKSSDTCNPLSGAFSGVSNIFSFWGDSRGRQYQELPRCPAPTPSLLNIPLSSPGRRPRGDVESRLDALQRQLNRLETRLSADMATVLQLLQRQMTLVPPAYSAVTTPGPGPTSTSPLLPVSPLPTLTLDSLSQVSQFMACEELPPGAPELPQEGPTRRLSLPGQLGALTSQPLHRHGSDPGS
From the text: QPatch HTX system (Sophion Biosciences A/S, Ballerup, Denmark) was used to examine hERG signaling (Cyprotex, Watertown, MA, USA). The system was primed with appropriate extracellular (NaCl, KCl, CaCl2, MgCl2, D-glucose, HEPES, pH 7.4) and intracellular (KCl, MgCl2, EGTA, MgATP, HEPES, pH 7.2) solutions before conducting the study in a 48 well plate (QPlate, Sophion Biosciences A/S, Ballerup, Denmark). All cell suspensions, buffers, and test compound solutions were kept at room temperature during the experiment. HEK293 cells stably transfected with hERG cDNA were washed and positioned into each well (recording chamber) of the QPlate. The QPatch system follows the general principles of conventional whole-cell patch-clamping: a high resistance seal is formed between the patch electrode, and an individual cell, the membrane across the electrode tip is then ruptured, and the whole-cell patch-clamp configuration is established. The standard voltage profile was as follows: step from -80 mV to –50 mV for 200 ms, +20 mV for 4.8 s, step to -50 mV for 5 s, then stepped to the holding potential of -80 mV. The step from -80 mV to the test command (+20 mV) results in an outward current (i.e., current flows out of the cell), and the step from the test command (+20 mV) to -50 mV results in the tail current (the tail current represents deactivation of the current overtime). Compound dilutions were prepared by diluting a DMSO solution (default 10 mM), followed by dilution into an extracellular buffer such that the final concentrations tested were 0.1, 1, and 10 μM (final DMSO concentration 0.1%). Perfusion solutions contained 0.05% Pluronic F-68 and were stored at room temperature for the duration of the experiment each day. The voltage protocol was run and recorded continuously during the experiment. Cells were treated with a vehicle for 3 min (i.e., 0.1% DMSO) followed by three increasing test substance concentrations (0.1, 1, and 10 μM). The test compounds were applied in triplicate at each concentration and tested in at least 2 cells (biological replicates). […]

S. aureus TrxR = S. aureus TrxR (Staphylococcus aureus, UniProt P66011); test: TrxR (TrxB) enzymatic assay, DTNB to TNB conversion
Sequence of S. aureus TrxR (P66011 whole entry): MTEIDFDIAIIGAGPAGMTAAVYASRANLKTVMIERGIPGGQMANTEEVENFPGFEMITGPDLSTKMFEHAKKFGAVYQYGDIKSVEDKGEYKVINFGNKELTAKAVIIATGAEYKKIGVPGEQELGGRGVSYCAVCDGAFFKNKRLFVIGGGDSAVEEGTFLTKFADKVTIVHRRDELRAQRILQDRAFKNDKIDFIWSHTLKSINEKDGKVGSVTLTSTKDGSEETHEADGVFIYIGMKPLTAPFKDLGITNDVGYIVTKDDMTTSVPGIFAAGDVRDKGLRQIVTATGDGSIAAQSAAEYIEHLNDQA
Method: TrxR specific inhibitory activity was evaluated using 40 μL of S. aureus TrxR enzyme (0.5 μg/μL) per 200 mL of the reaction mixture for 15 minutes, comparing auranofin to other sulfur-containing compounds (all tested at 10 μg/mL), including known anti-S. aureus compounds.
For the screening assay, diluted TrxR assay buffer (Cayman Chemical, Ann Arbor, MI) (100 μL) was mixed with the investigational compounds (20 μL) in a 96 well-plate format and combined with Sa-TrxB (40 μL; 0.5 μg/mL), DTNB (20 μL) and NADPH (20 μL). The reaction entailed combining NADPH and Sa-TrxB with DTNB, which was converted to TNB, producing a yellow color.

S. aureus MW2 [7] = test: Broth microdilution MIC, S. aureus MW2; assay type: cell-based, Staphylococcus aureus; conditions: Staphylococcus aureus, MRSA, 18 h
Method: (§2) In vitro antibiotic susceptibilities were determined using the broth microdilution assay established by the Clinical and Laboratory Standards Institute ([Clinical and Laboratory Standards Institute, 2012]). Broth microdilution assays were carried out with 2 biological replicates, each in triplicate, Mueller–Hinton broth (MHB; BD Biosciences, Franklin Lakes, NJ, USA) with a total assay volume of 100 μL in 96-well plates (BD Biosciences, Franklin Lakes, NJ, USA). Two-fold serial dilutions of compounds were prepared at a range of 0.01– 64 μg/mL in 50 μL of MHB. The initial bacterial inoculum was adjusted to OD600 0.06, 50 μL was, added to the test compounds, and then incubated at 35°C for 18 h. Post incubation, OD600 was measured using a Vmax microplate reader (Molecular Devices, San Jose, CA), and the lowest concentration of test compound that suppressed bacterial growth was reported as the MIC. Broth culture from the MIC assay (10 μL) was plated on Mueller–Hinton agar (BD Biosciences, Franklin Lakes, NJ, USA), and colony-forming units (CFUs) were enumerated after overnight incubation at 37°C.

E. faecium ATCC E007 = test: Broth microdilution MIC, E. faecium; assay type: cell-based, Enterococcus faecium; conditions: Enterococcus faecium, ATCCE007
Method: as §2

H. pylori 49503 = test: Broth microdilution MIC, H. pylori; assay type: cell-based, Helicobacter pylori; conditions: Helicobacter pylori, 49503
Method: as §2

A. baumannii 17978 = test: Broth microdilution MIC, A. baumannii; assay type: cell-based, Acinetobacter baumannii; conditions: Acinetobacter baumannii, 17978
Method: as §2

P. aeruginosa PA14 = test: Broth microdilution MIC, P. aeruginosa; assay type: cell-based, Pseudomonas aeruginosa; conditions: Pseudomonas aeruginosa, PA14
Method: as §2

K. pneumoniae ATCC 77326 = test: Broth microdilution MIC, K. pneumoniae; assay type: cell-based, Klebsiella pneumonia; conditions: Klebsiella pneumoniae, ATCC77326
Method: as §2

Enterobacter (EAE 2625) = test: Broth microdilution MIC, Enterobacter; assay type: cell-based, Enterobacter spp.; conditions: Enterobacter
Method: as §2

[8] = test system: clinical isolates of S. aureus; test: MIC against clinical isolates of S. aureus; assay type: cell-based; conditions: Staphylococcus aureus
Method: Broth microdilution assays were carried out with 2 biological replicates, each in triplicate, Mueller–Hinton broth (MHB; BD Biosciences, Franklin Lakes, NJ, USA) with a total assay volume of 100 μL in 96-well plates (BD Biosciences, Franklin Lakes, NJ, USA). […] The initial bacterial inoculum was adjusted to OD600 0.06, 50 μL was, added to the test compounds, and then incubated at 35°C for 18 h. Post incubation, OD600 was measured using a Vmax microplate reader (Molecular Devices, San Jose, CA), and the lowest concentration of test compound that suppressed bacterial growth was reported as the MIC.
Isolates were tested as 2 biological replicates.

[9] = test system: S. aureus MW2 biofilm formation; test: Biofilm formation inhibition; assay type: cell-based, Staphylococcus aureus; conditions: 24 h, Alamar Blue
Method: (§3) Diluted bacterial cells were added to 100 μL of test compounds (serially diluted 16 to 0 μg/mL) and incubated for 24 h to assess the biofilm formation inhibition. For the disruption of matured biofilm, diluted cells in 100 μL were added to the 96-well plate and incubated for 24 h with no agitation. […] Biofilm assays were completed in triplicate.

mature S. aureus biofilm = test: Disruption of mature biofilm; assay type: cell-based, Staphylococcus aureus; conditions: preformed 24 h biofilm, Alamar Blue
Method: as §3

CC(C)(C)c1ccc(S(=O)[O-])cc1.[Au+].c1ccc(P(c2ccccc2)c2ccccc2)cc1 [AU5]
bactericidal versus bacteriostatic nature (time-to-kill kinetics) (S. aureus MW2 [1]): bactericidal; also recorded: bacteriocidal
LD50 (HKC cells): approximately 4 μg/mL
LD50 (HepG2 cells): approximately 4 μg/mL
LD50 (A549 cells): approximately 4 μg/mL
selectivity ratio at 24 h [2]: 16
LD50 [3]: ~6 µg/mL
LD50 ([4]; renal proximal tubule epithelial cells): 2 µg/mL
solubility at 2 h ([5]; PBS, 2 Hour, highest concentration with no detectable precipitate, read-out: Solubility Limit): 3.13 µM
solubility at 2 h ([5]; pbs, read-out: Solubility in PBS converted to mass concentration): 2.03 µg/mL
solubility at 1 h [6]: 6.5 µg/mL
IC50 (hERG channel): 3.16 µM
IC50 (S. aureus TrxR): 1.83 µM

CN[C@H](CC(C)C)C(=O)N[C@H]1C(=O)N[C@@H](CC(N)=O)C(=O)N[C@H]2C(=O)N[C@H]3C(=O)N[C@H](C(=O)N[C@H](C(=O)O)c4cc(O)cc(O)c4-c4cc3ccc4O)[C@H](O)c3ccc(c(Cl)c3)Oc3cc2cc(c3O[C@@H]2O[C@H](CO)[C@@H](O)[C@H](O)[C@H]2O[C@H]2C[C@](C)(N)[C@H](O)[C@H](C)O2)Oc2ccc(cc2Cl)[C@H]1O [Vancomycin]
MIC (S. aureus MW2 [7]): 1 µg/mL (≈ 0.69 µM)
MIC (E. faecium ATCC E007): 1 µg/mL (≈ 0.69 µM)
MIC (H. pylori 49503): > 64 µg/mL
MIC (A. baumannii 17978): > 64 µg/mL
MIC (P. aeruginosa PA14): > 64 µg/mL
MIC (K. pneumoniae ATCC 77326): > 64 µg/mL
MIC (Enterobacter (EAE 2625)): > 64 µg/mL
MIC ([8]; isolate BFSA12): 1 µg/mL (≈ 0.69 µM)
MIC ([8]; isolate BFSA13): 1 µg/mL (≈ 0.69 µM)
MIC ([8]; isolate BFSA15): 1 µg/mL (≈ 0.69 µM)
MIC ([8]; isolate BFSA16): 1 µg/mL (≈ 0.69 µM)
MIC ([8]; isolate BFSA17): 1 µg/mL (≈ 0.69 µM)
MIC ([8]; isolate BFSA18): 2 µg/mL (≈ 1.38 µM)
MIC ([8]; isolate BFSA19): 1 µg/mL (≈ 0.69 µM)
MIC ([8]; isolate BFSA20): 1 µg/mL (≈ 0.69 µM)
MIC ([8]; isolate BFSA21): 2 µg/mL (≈ 1.38 µM)
MIC ([8]; isolate BFSA22): 2 µg/mL (≈ 1.38 µM)
MIC ([8]; isolate BFSA24): 1 µg/mL (≈ 0.69 µM)
MIC ([8]; isolate BFSA26): 2 µg/mL (≈ 1.38 µM)
MIC ([8]; isolate BFSA29): 1 µg/mL (≈ 0.69 µM)
MIC ([8]; isolate BFSA30): 1 µg/mL (≈ 0.69 µM)
MIC ([8]; isolate BFSA31): 2 µg/mL (≈ 1.38 µM)
MIC ([8]; isolate BFSA32): 2 µg/mL (≈ 1.38 µM)
MIC ([8]; isolate BFSA33): 2 µg/mL (≈ 1.38 µM)
MIC ([8]; isolate BFSA34): 1 µg/mL (≈ 0.69 µM)
MIC ([8]; isolate BFSA35): 1 µg/mL (≈ 0.69 µM)
MIC ([8]; isolate BFSA36): 2 µg/mL (≈ 1.38 µM)
MIC ([8]; isolate BFSA37): 1 µg/mL (≈ 0.69 µM)
MIC ([8]; isolate BFSA38): 1 µg/mL (≈ 0.69 µM)
MIC ([8]; isolate BFSA39): 1 µg/mL (≈ 0.69 µM)
MIC ([8]; isolate BFSA148): 1 µg/mL (≈ 0.69 µM)
MIC ([8]; isolate BFSA149): 2 µg/mL (≈ 1.38 µM)
MIC ([8]; isolate BFSA150): 1 µg/mL (≈ 0.69 µM)
MIC ([8]; isolate BFSA151): 1 µg/mL (≈ 0.69 µM)
MIC ([8]; isolate BFSA152): 2 µg/mL (≈ 1.38 µM)
MIC ([8]; isolate BFSA153): 2 µg/mL (≈ 1.38 µM)
MIC ([8]; isolate BFSA155): 1 µg/mL (≈ 0.69 µM)
concentration that inhibited biofilm formation (P<0.01) [9]: 1 µg/mL
concentration that significantly reduced mature biofilm (mature S. aureus biofilm): 2 µg/mL
impact on renal proximal tubule epithelial cells (in words) ([4]; at the tested concentrations): did not impact
